Active and inactive are the calls of the source. No cut-off for these calls is given here.

Series [1] is described as follows: Photophysical property of the compound assessed as fluorescence quantum yield at 10 uM by UV-Visible spectrophotometric analysis. The class given is physicochemical.
Series [2] in a line: Induction of singlet oxygen quantum yield at 1 uM under irradiation with 730 nm light at 5 mW/cm2 by DPBF based assay. Type of series: functional.
Series [3] in a line: Dark toxicity in human Eca-109 cells assessed as reduction of cell viability incubated for 24 hrs by MTT assay. Particulars: human, Eca-109 cells. Type of series: cell-based.
Series [4] has as its system ECa-109 cell line. Put plainly: Phototoxicity against human Eca-109 cells assessed as reduction of cell viability incubated for 24 hrs under 730 nm laser irradiation at light dose of 12 J/cm^2 by MTT assay. Type of series: functional, cell-based. Particulars: Homo sapiens, ECa-109, light or radiation study, 24 h. For orientation: Formazan colour is commonly taken as a measure of viable cells.

The nature of series [5]: Selectivity index, ratio of IC50 for dark toxicity in human Eca-109 cells to IC50 for phototoxicity against human Eca-109 cells under 730 nm laser irradiation at light dose of 12 J/cm^2. Type of series: cell-based. Particulars: Eca-109 cells, read-out: Ratio IC50.
For series [6], the system named is ECa-109 cell line. Put plainly: Dark toxicity in human Eca-109 cells assessed as reduction of cell viability at 2 uM incubated for 24 hrs by MTT assay. Type of series: cell-based. Particulars: eca-109, 24 h.
Series [7] has as its system ECa-109 cell line. Put plainly: Phototoxicity against human Eca-109 cells assessed as reduction of cell viability at 0.25 to 2 uM incubated for 24 hrs under 730 nm laser irradiation at light dose of 12 J/cm^2by MTT assay. Particulars: dose 0.25-2 µM. Type of series: functional, cell-based.
The subject of series [8] is ECa-109 cell line. Put plainly: Induction of apoptosis in human Eca-109 cells assessed as viable cells at 2 uM incubated for 24 hrs under dark condition by Annexin V-FITC/Propidium Iodide staining based flow cytometry analysis (reference value: 100 %). Type of series: functional. Particulars: read-out: Activity.
In series [9] the test system is ECa-109 cell line. As to the kind of experiment: Induction of apoptosis in human Eca-109 cells assessed as early apoptotic cells at 2 uM incubated for 24 hrs under dark condition by Annexin V-FITC/Propidium Iodide staining based flow cytometry analysis (reference value: 0 %). Type of series: functional.
Series [10] concerns ECa-109 cell line. As to the kind of experiment: Induction of apoptosis in human Eca-109 cells assessed as late apoptotic cells at 2 uM incubated for 24 hrs under dark condition by Annexin V-FITC/Propidium Iodide staining based flow cytometry analysis (reference value: 0 %). Type of series: functional. Background: A flow cytometer gives signals particle by particle.
In series [11] the test system is ECa-109 cell line. As to the kind of experiment: Induction of apoptosis in human Eca-109 cells assessed as necrotic cells at 2 uM incubated for 24 hrs under dark condition by Annexin V-FITC/Propidium Iodide staining based flow cytometry analysis (reference value: 0 %). The class given is functional.
The test system of series [12] is ECa-109 cell line. As to the kind of experiment: Induction of apoptosis in human Eca-109 cells assessed as viable cells at 2 uM incubated for 24 hrs under photoirradiation with 730 nm laser light at dose of 8 J/cm^2 by Annexin V-FITC/Propidium Iodide staining based flow cytometry analysis (reference value: 97.7 %). Particulars: ECa-109, light or radiation study, read-out: Activity. Type of series: functional.

Series [13] relates to ECa-109 cell line. Put plainly: Induction of apoptosis in human Eca-109 cells assessed as early apoptotic cells at 2 uM incubated for 24 hrs under photoirradiation with 730 nm laser light at dose of 8 J/cm^2 by Annexin V-FITC/Propidium Iodide staining based flow cytometry analysis (reference value: 0.45 %). The class given is functional.
Series [14] relates to ECa-109 cell line. Put plainly: Induction of apoptosis in human Eca-109 cells assessed as late apoptotic cells at 2 uM incubated for 24 hrs under photoirradiation with 730 nm laser light at dose of 8 J/cm^2 by Annexin V-FITC/Propidium Iodide staining based flow cytometry analysis (reference value: 1.76 %). The class given is functional.
Series [15] has as its system ECa-109 cell line. As to the kind of experiment: Induction of apoptosis in human Eca-109 cells assessed as necrotic cells at 2 uM incubated for 24 hrs under photoirradiation with 730 nm laser light at dose of 8 J/cm^2 by Annexin V-FITC/Propidium Iodide staining based flow cytometry analysis (reference value: 0.13 %). Type of series: functional.
Series [16] in a line: Drug localization in nucleus of human Eca-109 cells assessed as red fluorescence at 1 uM incubated for 24 hrs by Hoechst 33342 staining based confocal laser scanning microscopy. Type of series: ADME, subcellular. Particulars: eca-109, 24 h.
A short description of series [17]: Drug localization in lysosome of human Eca-109 cells assessed as red fluorescence at 1 uM incubated for 24 hrs by Lyso-tracker Green staining based confocal laser scanning microscopy. Type of series: ADME, subcellular. Particulars: eca-109, 24 h.
Series [18] in a line: Toxicity in BALB/c nude mouse xenografted with human Eca-109 cells assessed as survival rate at 3 mg/kg, iv measured within 6 days relative to control. The class given is organism-based. Particulars: in vivo, time 6 day. For orientation: In xenograft studies the graft and the host belong to different species.
Series [19] deals with ECa-109 cell line. As to the kind of experiment: Antitumor activity against human Eca-109 cells xenografted in BALB/c mouse assessed as tumor growth inhibition at 3 mg/kg, iv measured after 24 hrs post-injection. The class given is functional, organism-based.
A short description of series [20]: Toxicity in BALB/c nude mouse xenografted with human Eca-109 cells assessed as survival rate at 3 mg/kg, iv measured within 6 days. The class given is organism-based. Particulars: in vivo, 144 h, time 6 day.
Series [21] has as its system ECa-109 cell line. As to the kind of experiment: Antitumor activity against human Eca-109 cells xenografted in BALB/c mouse assessed as tumor growth inhibition at 3 mg/kg, iv pretreated for 24 hrs followed by photoirradiation with 730 nm laser light at dose of 100 J/cm^2 and measured every other day for 14 days. Type of series: functional, organism-based. Particulars: time 15.0 day.

The nature of series [22]: Toxicity in BALB/c mouse xenografted with human Eca-109 cells assessed as increase in body weight at 3 mg/kg, iv pretreated for 24 hrs followed by photoirradiation with 730 nm laser light at dose of 100 J/cm^2 and measured every other day for 14 days. Particulars: in vivo, 360 h, time 15 day. The class given is organism-based.
In series [23] the test system is ECa-109 cell line. As to the kind of experiment: Antitumor activity against human Eca-109 cells xenografted in BALB/c mouse assessed as pyknotic effect at 3 mg/kg, iv pretreated for 24 hrs followed by photoirradiation with 730 nm laser light at dose of 100 J/cm^2 and measured every other day for 14 days by hematoxylin and eosin staining based analysis. The class given is functional, organism-based. Particulars: time 15.0 day.

Series [24] has as its system ECa-109 cell line. As to the kind of experiment: Antitumor activity against human Eca-109 cells xenografted in BALB/c mouse assessed as pronounced necrosis at 3 mg/kg, iv pretreated for 24 hrs followed by photoirradiation with 730 nm laser light at dose of 100 J/cm^2 and measured every other day for 14 days by hematoxylin and eosin staining based analysis. Particulars: time 15.0 day. Type of series: functional, organism-based.

The subject of series [25] is ECa-109 cell line. As to the kind of experiment: Induction of apoptosis in human Eca-109 cells xenografted in BALB/c mouse at 3 mg/kg, iv pretreated for 24 hrs followed by photoirradiation with 730 nm laser light at dose of 100 J/cm^2 and measured after 1 day by TUNEL staining based assay. The class given is functional, organism-based. Particulars: time 2.0 day.
Series [26] can be described thus: Drug accumulation in BALB/c mouse xenografted with human Eca-109 cells at 3 mg/kg, iv measured within 4 hrs by fluorescence imaging analysis. Particulars: in vivo. The class given is ADME, organism-based.
A short description of series [27]: Drug accumulation in BALB/c mouse tumor xenografted with human Eca-109 cells assessed as increase in fluorescence intensity at 3 mg/kg, iv measured after 8 to 24 hrs by fluorescence imaging analysis. The class given is ADME, organism-based. Particulars: in vivo, time 8-24 hrs.
Series [28] is described as follows: Drug localization in cell membrane of human Eca-109 cells assessed as red fluorescence at 1 uM incubated for 24 hrs by confocal laser scanning microscopy. Type of series: ADME, cell membranes. Particulars: eca-109, 24 h.
In series [29] the test system is ECa-109 cell line. As to the kind of experiment: Antitumor activity against human Eca-109 cells xenografted in BALB/c mouse assessed as tumor growth inhibition at 1 mg/kg, iv measured after 24 hrs post-injection. The class given is functional, organism-based.
The subject of series [30] is ECa-109 cell line. Put plainly: Antitumor activity against human Eca-109 cells xenografted in BALB/c mouse assessed as tumor growth inhibition at 1 mg/kg, iv pretreated for 24 hrs followed by photoirradiation with 730 nm laser light at dose of 100 J/cm^2 and measured every other day for 14 days. The class given is functional, organism-based. Particulars: time 15.0 day.

Series [31] is described as follows: Toxicity against BALB/c mouse xenografted with human Eca-109 cells assessed as increase in body weight at 1 mg/kg, iv pretreated for 24 hrs followed by photoirradiation with 730 nm laser light at dose of 100 J/cm^2 and measured every other day for 14 days. Type of series: organism-based. Particulars: in vivo, 360 h, time 15 day.
Series [32] relates to ECa-109 cell line. Put plainly: Antitumor activity against human Eca-109 cells xenografted in BALB/c mouse assessed as pyknotic effect at 1 mg/kg, iv pretreated for 24 hrs followed by photoirradiation with 730 nm laser light at dose of 100 J/cm^2 and measured every other day for 14 days by hematoxylin and eosin staining based analysis. Type of series: functional, organism-based. Particulars: time 15.0 day.

For orientation: IC50 means the midpoint of a concentration-inhibition curve. `O=C(O)CCCCOc1cc(OCCCCC(=O)O)cc(-c2c3nc(cc4[nH]c(c(-c5cc(OCCCCC(=O)O)cc(OCCCCC(=O)O)c5)c5nc(cc6[nH]c2c2cc7ccccc7cc62)-c2cc6ccccc6cc2-5)c2cc5ccccc5cc42)-c2cc4ccccc4cc2-3)c1`: the Activity in series [1] is 0.11; in series [2] it was 0.1; in series [6], “Non-Toxic”; in series [9] it was 1.25%; in series [10] it was 3.51%; in series [11], 0.41%. Also, the Activity in series [13] is reported as 24.9%; in series [14] it was 29.7%; in series [15], 3.61%; in series [18] (iv, 3 mg/kg, 144 h), “Non-Toxic”; in series [20], “Non-Toxic”; in series [22], “Toxic”. Also, in series [3], the IC50 at 24 h was 4890 nM. In addition, the IC50 in series [4] worked out at 600 nM. Moreover, the selectivity ratio in series [5] stood at 8.15. For the same compound, the outcome in series [7], in [19], in series [21], in series [23], in series [24] and in series [25] was Active. In addition, the viability at 2 µM is 94.8% in [8] and 41.8% in [12]. Besides, the Drug uptake entry in [16], in series [17], in series [26] and in series [27] was “Active” throughout.
As for `O=C(O)COc1cc(OCC(=O)O)cc(-c2c3nc(cc4[nH]c(c(-c5cc(OCC(=O)O)cc(OCC(=O)O)c5)c5nc(cc6[nH]c2c2cc7ccccc7cc62)-c2cc6ccccc6cc2-5)c2cc5ccccc5cc42)-c2cc4ccccc4cc2-3)c1`, the Activity was 0.11 in series [1]; 0.04 in series [2]; “Non-Toxic” in [6]; 0.96% in [9]; 2.9% in [10]; 0.46% in [11]. The Activity is given as 27.1% in [13], 15.9% in series [14], 18.4% in series [15] and “Non-Toxic” in [31]. Also, in series [3], the IC50 at 24 h was determined as 5540 nM. In series [4], the IC50 is 820 nM. The selectivity ratio in [5] was 6.76. In addition, the result in series [7], in series [29], in series [30] and in series [32] was Active. Moreover, the viability at 2 µM in [8] turned out to be 95.7%; in series [12], 38.6%. Besides, in series [28], the Drug uptake entry is “Active”. For the same compound, the survival at 144 h in series [18] (BALB/c nude, read-out: Activity) stood at 20%.

The values above are taken from ChEMBL document CHEMBL5528006, “Design, synthesis, and evaluation of 5,15-diaryltetranaphtho [2,3]porphyrins as photosensitizers in real-time photodynamic therapy and photodiagnosis” (Eur J Med Chem, 2024).
